# Laboratory results reported in US20170234881A1, “METHODS OF DIAGNOSING AND TREATING CANCER” (INSERM ( INSTITUT NATIONAL DE LA SANTÉ ET DE LA RECHERCHE …, priority 2014, published 2017).
# Key:
# sh11HSD2 tumors = test: Growth of sh11HSD2 MCF7 tumors xenografted in mice; format: in vivo
# Method: FIG. 7. Knock-down of 11βHSD2 decreases cell proliferation, invasion and survival in MCF7 cells as well as tumor growth and OCDO reverses these effects. shC or shHSD2 MCF7 cells were analyzed as followed: (A) The proliferation of sh-C or shHSD2 cells treated or not with OCDO 5 μM 24 h was measured using quantification of DNA BrDU incorporation as described in FIG. 2A. (B) The proliferation of sh-C or shHSD2 cells treated or not with increasing concentration of cortisone for 24 h was measured as in (A). (C) The invasiveness of sh-C or shHSD2 cells treated or not with OCDO 5 μM for 72 h was assayed using matrigel-coated filters. (D) the formation of colony by sh-C or shHSD2 cells treated or not with OCDO 1 μM was quantified as described in FIG. 6F. […] Animals were monitored for tumor growth twice a week. […] (F) Mean (±s.e.m) of Ki67 positive cell number determined from IHC staining of shC or shHSD2 MCF7 tumor sections from (E), n=8, *P<0.05 (Student's t-test) using HistoQuant, Pannoramic Viewer (3DHistech).
# Exponentially growing MCF7, ShMCF7, E0771, MDA-MB231, MDA-MB468 and TS/A cells were collected, washed twice in PBS and resuspended in PBS. […] Animals were examined daily, and body weights were measured twice per week. In all the experiments, the tumor volume was determined by direct measurement with a caliper and was calculated using the formula (width^2×length)/2. […]
# TS/A tumors = test: Growth of TS/A tumors implanted s.c. into mice; format: in vivo
# Method: FIG. 2. OCDO is a tumor promoter in vitro and in vivo and its inhibition contributes to the anti-tumor effects of Tam and DDA. (A, B) Histograms representing the effect of OCDO or 17β-estrogen (E2) on MCF7 (A) and TS/A (B) cell proliferation after 24 h treatment using a colorimetric immunoassay measuring BrDU incorporation in DNA (C, D) Histogram representing the effect of OCDO on MCF7 (C) and TS/A (D) cell invasion. Data are the mean of three separate experiments (±s.e.m), *P<0.05, **P<0.01, ***P<0.001 (Student's t-test). (E, F) Mice were implanted s.c. with MCF7 (E) or TS/A (F) cells and animals (8 per group) were treated s.c. every day starting on the day of implantation with either the solvent vehicle or OCDO (16 μg/kg for MCF7 or 50 μg/kg for TS/A). Animals were monitored for tumour growth twice a week. The data are representative of three independent experiments. The mean tumor volume±s.e.m is shown, *P<0.05, **P<0.01, ***P<0.001 (analysis of variance (ANOVA), Dunnett's post test). (G) Mean (±s.e.m) of Ki67 positive cell number determined from IHC staining of MCF7 tumor sections from (E), n=8, *P<0.05 (Student's t-test) using HistoQuant, Pannoramic Viewer (3DHistech). (H) Representative Ki67 staining of TS/A tumor sections from (F) showing increased staining in OCDO-treated tumor compared with control-treated tumor. (I, J, K). Murine E0771(I), or human MDA-MB231 (J) or MDA-MB468 (K) cells implanted s.c. into mice (8 per group) and animals were treated s.c. with either the solvent vehicle or OCDO (16 μg/kg for MDA-MB-231 and MDA-MB-468 or 50 μg/kg for E0771). The data are representative of two independent experiments. Statistical analysis was performed as in E and F. (L) Mice were implanted s.c. with TS/A cells and animals (8 per group) were treated s.c. every day with either the solvent vehicle, OCDO (50 μg/kg), Tam (56 mg/kg), DDA (20 mg/kg) or the combination of Tam (56 mg/kg) +OCDO (50 μg/kg) or DDA (20 mg/kg)+OCDO (50 μg/kg). The data are representative of three independent experiments. Statistical analysis was performed as in E and F.
# Exponentially growing MCF7, ShMCF7, E0771, MDA-MB231, MDA-MB468 and TS/A cells were collected, washed twice in PBS and resuspended in PBS. TS/A and E9771 tumours were prepared by subcutaneous transplantation of 35×10^3 cells or 3×10^5 cells respectively in 100 μl PBS into the flank of BALB/c or C57B16 mice. For other tumors, 5 to 10×10^6 cells in 200 μl PBS/matrigel (1/1) were injected into the flank of NMRI nude mice. Animals were treated as indicated in the legends. Animals were examined daily, and body weights were measured twice per week. In all the experiments, the tumor volume was determined by direct measurement with a caliper and was calculated using the formula (width^2×length)/2. Tumors were either frozen in liquid nitrogen or fixed in 10% neutral-buffered formalin and embedded in paraffin for immunohistochemical analysis. Paraffin sections were stained with haematoxylin and eosin for histomorphological analyses. Immunohistochemical staining was done on paraffin-embedded tissue sections, using a specific Ki67 antibody (Dako).
# We then assayed the anti-growth effect of Tam or DDA against TS/A tumors in the absence and presence of OCDO. As above, TS/A tumors implanted into immunocompetent mice were treated s.c. every day either with either the solvent vehicle (control), OCDO (50 μg/kg), Tam (56 mg/kg), DDA (20 mg/kg) or the combination of Tam (56 mg/kg)+OCDO (50 μg/kg) or DDA (20 mg/kg) +OCDO (50 μg/kg).
compound,measurement,setting,value
"CC(C)CCC[C@@H](C)[C@H]1CC[C@H]2[C@@H]3CC(=O)[C@@]4(O)C[C@@H](O)CC[C@]4(C)[C@H]3CC[C@]12C [OCDO, 6-oxo-cholestan-3β,5α-diol]",effect on growth of sh11HSD2 tumors,"sh11HSD2 tumors; immunodeficient mice, subcutaneous OCDO 15 μg/kg, 5 days/week",reversed the growth inhibition of sh11HSD2 tumors to a level similar to the growth of shC tumors
same,cell proliferation by KI67 staining of tumors,"sh11HSD2 tumors; sh11HSD2 MCF7 tumors, OCDO treatment",reversed the growth inhibition of sh11HSD2 tumors
same,tumor growth compared with the control group,"TS/A tumors; TS/A tumors in immunocompetent mice, OCDO 50 μg/kg s.c. every day",significantly increased
same,proliferative marker Ki67 in tumors compared with control-treated tumors,"TS/A tumors; TS/A tumors, IHC",increased
same,enhancement of TS/A tumor growth compared with the control group,"TS/A tumors; after 13 days of treatment, OCDO 50 μg/kg s.c. every day, p<0.01",140%
